Assay results from US4272538A, “5-Nitro-imidazole with antiprotozoic activity” (Rotta Research Laboratorium S.p.A., priority 1978, dated 1981).

What was measured:
Trichomonas Vaginalis = test: Systemic activity in mice infected subcutaneously with Trichomonas Vaginalis; type: in vivo
Method: (B1) Systematic activity in mice infected subcutaneously with Trichomonas Vaginalis Female Charles River mice of about 20 grams weight are used and injected subcutaneously with 1 ml of a physiological solution containing 10^6 cells of Trichomonas Vaginalis (evaluated by means of counting in a Burker chamber), resulting from a 24 hour culture in Trichosel BBL substrate containing 15% in weight/volume of deactivated horse serum. Abscesses are thus developed in the place of infection which may burst open externally, piercing the skin. To establish the activity of a product, groups of 10 animals per tested dose are used, and on the 7th day the presence or absence of abscesses are determined (evaluated in terms of all or nothing). The compounds are administered orally, dissolved or in suspension in water, over 5 days, twice a day, the treatment being started 30 minutes after infection. The results obtained are recorded in Table 2 which gives the ED84 in mg/kg for oral administration, that is the dose of the drug capable of preventing the formation of the infection in 84% of the infected animals.

Entamoeba Histolytica = test: Systemic activity on hepatic abscess from Entamoeba Histolytica in the hamster; type: in vivo
Method: (B2) Systemic activity on hepatic abscess from Entamoeba Histolytica in the hamster Golden hamsters of the strain RRL-805 of about 50 grams weight are used; after laparatomy, 0.05 ml of a suspension of amoebae (cellular density of about 10^6 amoebae/ml) is injected into the right hepatic lobe. Abscesses develop on the liver, the average weight of which is determined after killing of the animals 72 hours after the injection. The drugs under examination are administered orally twice a day for four days, the treatment being started the day before the infection. The evaluation is carried out by comparing the average weight of the hepatic abscesses developed in the group of animals treated with a drug with that of a control group. The results obtained are recorded in Table 3 which gives the ED84 in mg/kg administered orally, that is the dose of the drug capable of reducing the weight of the abscesses by 84% with respect to the controls. The values given were calculated from the regression line obtained from the results of a series of experiments, each compound being administered to at least 5 groups of six animals at generally different doses.

[1] = cited from earlier work

Compound: O=[N+]([O-])c1cncn1CCN1CCOCC1 [Nimorazole, reference compound]
- ED84 (Trichomonas Vaginalis; Trichomonas vaginalis, 168 h, oral, twice a day over 5 days, dose preventing infection in 84% of animals, (S)/(NS) = significance of regression line, read-out: ED84, anti-trichomonas activity in mice): 62.6 mg/kg
- Index of relative activity calc. on ED84 (vs metronidazole), mice (Trichomonas Vaginalis; relative to metronidazole = 1): 0.45
- ED84 (Entamoeba Histolytica; Entamoeba histolytica, 72 h, oral, twice a day for four days, dose reducing abscess weight by 84% vs controls, (S)/(NS) = significance of regression line, read-out: ED84, anti-amoebic activity in the hamster): 133 mg/kg
- Index of relative activity calc. on the ED84 (vs metronidazole), hamster (Entamoeba Histolytica; relative to metronidazole = 1): 0.8
- LD50, acute oral toxicity (data from literature, rat) [1]: 3180 mg/kg
